Test results taken from ChEMBL document CHEMBL4622970, “Design, Synthesis, and Evaluation of New Quinazolinone Derivatives that Inhibit Bloom Syndrome Protein (BLM) Helicase, Trigger DNA Damage at the Telomere Region, and Synergize with PARP Inhibitors” (J Med Chem, 2020).
The source made the active and inactive calls. The calls are words filed in the database; no cut-off is given here.

How the values were obtained:
[1] = target: T1, RecQ-like DNA helicase BLM (Homo sapiens, UniProt P54132); experiment: (§1) Inhibition of His-tagged BLM (642 to 1296 residues) (unknown origin) expressed in Escherichia coli BL21 (DE3) cells assessed as reduction in DNA unwinding activity at <10 uM using 5'-biotin-labeled forked DNA as substrate preincubated for 1 hr followed by substrate addition and measured after 1 hr by electrophoretic mobility shift assay
T1 sequence (P54132 whole entry, the tested form may be a part): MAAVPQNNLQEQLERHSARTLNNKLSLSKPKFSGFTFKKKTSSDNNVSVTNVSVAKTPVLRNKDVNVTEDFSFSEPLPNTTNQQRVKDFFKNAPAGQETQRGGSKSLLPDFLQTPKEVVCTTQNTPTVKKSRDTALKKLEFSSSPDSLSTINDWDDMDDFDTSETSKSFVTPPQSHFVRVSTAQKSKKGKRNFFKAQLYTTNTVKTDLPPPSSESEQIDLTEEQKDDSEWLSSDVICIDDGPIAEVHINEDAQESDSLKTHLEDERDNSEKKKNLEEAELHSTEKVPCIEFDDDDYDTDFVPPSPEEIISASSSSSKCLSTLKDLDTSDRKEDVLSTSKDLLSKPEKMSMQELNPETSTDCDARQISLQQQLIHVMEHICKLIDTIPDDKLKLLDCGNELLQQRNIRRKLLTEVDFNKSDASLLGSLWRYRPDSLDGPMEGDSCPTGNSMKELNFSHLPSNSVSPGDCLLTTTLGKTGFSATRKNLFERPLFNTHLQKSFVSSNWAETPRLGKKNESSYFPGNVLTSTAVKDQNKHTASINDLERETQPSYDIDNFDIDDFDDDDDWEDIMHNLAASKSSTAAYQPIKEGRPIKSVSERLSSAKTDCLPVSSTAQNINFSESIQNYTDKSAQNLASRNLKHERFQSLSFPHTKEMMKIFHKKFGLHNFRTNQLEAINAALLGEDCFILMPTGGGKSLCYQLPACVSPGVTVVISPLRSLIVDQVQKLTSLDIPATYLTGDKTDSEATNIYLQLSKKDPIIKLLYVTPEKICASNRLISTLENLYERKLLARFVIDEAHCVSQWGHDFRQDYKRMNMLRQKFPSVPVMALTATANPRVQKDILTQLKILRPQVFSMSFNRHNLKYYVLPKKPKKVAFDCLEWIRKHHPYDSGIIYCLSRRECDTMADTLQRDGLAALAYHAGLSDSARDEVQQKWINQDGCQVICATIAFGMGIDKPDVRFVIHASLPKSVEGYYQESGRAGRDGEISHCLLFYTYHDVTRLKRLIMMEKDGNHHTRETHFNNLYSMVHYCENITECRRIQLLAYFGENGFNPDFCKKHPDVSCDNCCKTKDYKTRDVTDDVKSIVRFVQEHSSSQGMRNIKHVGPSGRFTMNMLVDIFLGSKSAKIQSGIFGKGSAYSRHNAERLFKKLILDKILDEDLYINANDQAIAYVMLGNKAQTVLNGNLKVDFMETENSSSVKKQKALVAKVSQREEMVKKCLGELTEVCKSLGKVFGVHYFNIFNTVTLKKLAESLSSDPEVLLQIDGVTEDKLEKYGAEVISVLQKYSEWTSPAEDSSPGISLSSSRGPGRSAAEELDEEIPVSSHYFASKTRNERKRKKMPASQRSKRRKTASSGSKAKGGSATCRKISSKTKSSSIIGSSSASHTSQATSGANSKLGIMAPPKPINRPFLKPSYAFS

[2] = target: T1, RecQ-like DNA helicase BLM; experiment: as §1, with “activity” for “activity at <10 uM”
[3] = target: T1, RecQ-like DNA helicase BLM; experiment: Binding affinity to wild-type His-tagged BLM (642 to 1296 residues) (unknown origin) expressed in Escherichia coli BL21 (DE3) cells by isothermal calorimetric titration assay
[4] = test system: RecQ-like DNA helicase BLM (Homo sapiens), P54132 [H996A]; experiment: Binding affinity to His-tagged BLM H996A mutant (unknown origin) expressed in Escherichia coli BL21 (DE3) cells by isothermal calorimetric titration assay
Chain of RecQ-like DNA helicase BLM (Homo sapiens), P54132 [H996A] (P54132 whole entry H996A): as the sequence (P54132 whole entry, the tested form may be a part) above, with H996A counted along it

[5] = test system: RecQ-like DNA helicase BLM (Homo sapiens), P54132 [I1168A]; experiment: Binding affinity to His-tagged BLM I1168A mutant (unknown origin) expressed in Escherichia coli BL21 (DE3) cells by isothermal calorimetric titration assay
Chain of RecQ-like DNA helicase BLM (Homo sapiens), P54132 [I1168A] (P54132 whole entry I1168A): as the sequence (P54132 whole entry, the tested form may be a part) above, with I1168A counted along it

[6] = target: T1, RecQ-like DNA helicase BLM; experiment: Inhibition of BLM in human HCT116 cells assessed as down regulation of HRR level at 0.5 uM measured after 24 hrs by luciferase reporter gene assay; assay type: cell-based; conditions: HCT-116
[7] = target: T1, RecQ-like DNA helicase BLM; experiment: Binding affinity to BLM in human HCT116 cells cotransfected with DSB model and I-SceI plasmid assessed as reduction in recruitment of protein to DSB site in DNA at 1 uM measured after 24 hrs by chromatin immunoprecipitation assay; assay type: cell-based; conditions: HCT-116
[8] = target: T1, RecQ-like DNA helicase BLM; experiment: Binding affinity to BLM in human HCT116 cells cotransfected with DSB model and I-SceI plasmid assessed as reduction in recruitment of protein to DNA region distant from DSB site at 1 uM measured after 24 hrs by chromatin immunoprecipitation assay; assay type: cell-based; conditions: HCT-116
[9] = target: T1, RecQ-like DNA helicase BLM; experiment: Inhibition of BLM in human HCT116 cells assessed as potentiation of niraparib-induced cytotoxicity at 1 to 2 uM measured after 48 hrs by MTT assay; assay type: cell-based; conditions: HCT-116
[10] = target: T1, RecQ-like DNA helicase BLM; experiment: Inhibition of BLM in human HCT116 cells assessed as potentiation of olaparib-induced cytotoxicity at 1 to 2 uM measured after 48 hrs by MTT assay; assay type: cell-based; conditions: HCT-116
[11] = test system: HCT-116; experiment: Cytotoxicity against human HCT116 cells by MTT assay; assay type: functional, cell-based
[12] = target: T1, RecQ-like DNA helicase BLM; experiment: Inhibition of BLM in human HCT116 cells assessed as increase in gamma-H2AX level at 2 uM measured after 24 hrs by Western blot analysis; assay type: cell-based; conditions: HCT-116
[13] = target: T1, RecQ-like DNA helicase BLM; experiment: Binding affinity to His-tagged BLM (642 to 1296 residues) (unknown origin) expressed in Escherichia coli BL21 (DE3) cells assessed as inhibition of protein interaction with 5'-biotin-labeled forked DNA measured after 1 hr by ELISA

Row | Compound | Inhibition (active/not active) [1] | IC50 [2] [µM] | other results
1 | CCN(CC)CCCNc1c2c(nc3ccccc13)/C(=C/c1ccc(C(C)(C)C)cc1)CC2 | inactive |  | 
2 | CCN(CC)CCNc1cc2nc3n(c(=O)c2cc1F)CC/C3=C\c1ccccc1 | inactive |  | 
3 | CCN(CC)CCCNc1cc2nc3n(c(=O)c2cc1F)CC/C3=C\c1ccccc1 | inactive |  | 
4 | CCN(CC)CCNc1cc2nc3n(c(=O)c2cc1F)CC/C3=C\c1ccc(OC)cc1 | inactive |  | 
5 | CCN(CC)CCCNc1c2c(nc3ccccc13)/C(=C/c1ccc(CC(C)C)cc1)CC2 | Active | > 10 | 
6 | CCN(CC)CCNc1cc2nc3n(c(=O)c2cc1F)CCC/C3=C\c1ccc(C(C)C)cc1 | Active | > 10 | 
7 | CCN(CC)CCNc1cc2nc3n(c(=O)c2cc1F)CCC3Cc1ccc(N(CC)CC)cc1O (centres undefined) | inactive |  | 
8 | CCN(CC)CCCNc1cc2nc(/C=C/c3ccc(C(C)C)cc3)[nH]c(=O)c2cc1F | Active | > 10 | 
9 | CCN(CC)CCCNc1c2c(nc3ccccc13)/C(=C/c1ccc(C(C)C)cc1)CC2 |  | 8.7 | 
10 | CCN(CC)CCNc1cc2nc3n(c(=O)c2cc1F)CC/C3=C\c1ccc(O)cc1O | Active | > 10 | 
11 | CCNc1cc2nc(/C=C/c3ccc(C(C)C)cc3)n(CC)c(=O)c2cc1F | inactive |  | 
12 | CCN(CC)CCNc1cc2nc3n(c(=O)c2cc1F)CCC3Cc1ccc(C(C)C)cc1 (centres undefined) | Active | > 10 | 
13 | CCN(CC)CCNc1cc2nc3n(c(=O)c2cc1F)CC/C3=C\c1cccs1 | inactive |  | 
14 | CCN(CC)CCNc1cc2nc3n(c(=O)c2cc1F)CCC3Cc1ccc(C(C)(C)C)cc1 (centres undefined) | Active | > 10 | 
15 | CC(=O)NCCNc1cc2nc3n(c(=O)c2cc1F)CC/C3=C\c1ccc(C(C)C)cc1 | Active | > 10 | 
16 | CCOCCNc1cc2nc3n(c(=O)c2cc1F)CC/C3=C\c1ccc(C(C)C)cc1 | Active | > 10 | 
17 | CCN(CC)CCNc1cc2nc3n(c(=O)c2cc1F)CC/C3=C\c1ccc(N(C)C)cc1 | Active | > 10 | 
18 | CCN(CC)CCNc1cc2nc3n(c(=O)c2cc1F)CC/C3=C\c1ccc(N(C)C)cc1O |  | 6.4 | 
19 | CC(C)CCNc1cc2nc3n(c(=O)c2cc1F)CC/C3=C\c1ccc(C(C)C)cc1 | inactive |  | 
20 | CCN(CC)CCNc1cc2nc3n(c(=O)c2cc1F)CCC3Cc1ccc(C(C)C)cc1O (centres undefined) | Active | > 10 | 
21 | CCN(CC)CCNc1cc2nc3n(c(=O)c2cc1F)CC/C3=C\c1ccc(O)c(O)c1 | Active | > 10 | 
22 | CCN(CC)CCCNc1cc2nc(/C=C/c3ccc(CC(C)C)cc3)[nH]c(=O)c2cc1F |  | 4.7 | 
23 | CCN(CC)CCNc1cc2nc3n(c(=O)c2cc1F)CCC3Cc1ccc(CC(C)C)cc1 (centres undefined) | Active | > 10 | 
24 | CCN(CC)CCNc1cc2nc3c(cc2cc1F)CC/C3=C\c1ccc(C(C)C)cc1 | Active | > 10 | 
25 | CC(C)c1ccc(/C=C2\CCc3c2nc2ccccc2c3NCCCN(C)C)cc1 | Active | > 10 | 
26 | CCN(CC)CCNc1cc2nc3n(c(=O)c2cc1F)CCC3Cc1ccc(N(C)C)cc1 (centres undefined) | Active | > 10 | 
27 | CCc1ccc(/C=C2\CCc3c2nc2ccccc2c3NCCCN(CC)CC)cc1 | Active | > 10 | 

Second part, led by results:

Row | Inhibition (active/not active) [1] | IC50 [2] [µM] | Compound | other results
28 |  | 1.5 | CCN(CC)CCCNc1cc2nc3n(c(=O)c2cc1F)CC/C3=C\c1ccc(C(C)C)cc1 | Activity [3]: Active; Activity [4]: Active; Activity [5]: Active; inhibition [6]: Active; Activity [7]: Active; Activity [8]: Active; inhibition [9]: Active; inhibition [10]: Active
29 |  | 2 | CCN(CC)CCNc1cc2nc3n(c(=O)c2cc1F)CC/C3=C\c1ccc(C(C)C)cc1 | Activity [11]: Active; inhibition [6]: Active; inhibition [12]: Active
30 |  | 4.7 | CCN(CC)CCCNc1cc2nc(/C=C/c3ccc(C(C)C)cc3)n(C)c(=O)c2cc1F | 
31 |  | 1.8 | CCN(CC)CCCCNc1cc2nc3n(c(=O)c2cc1F)CC/C3=C\c1ccc(C(C)C)cc1 | 
32 |  | 3.1 | CCN(CC)CCNc1cc2nc3n(c(=O)c2cc1F)CC/C3=C\c1ccc(CC(C)C)cc1 | 
33 |  | 3.2 | CCc1ccc(/C=C2\CCn3c2nc2cc(NCCN(CC)CC)c(F)cc2c3=O)cc1 | 
34 |  | 3.3 | CCCc1ccc(/C=C2\CCn3c2nc2cc(NCCN(CC)CC)c(F)cc2c3=O)cc1 | 
35 |  | 1.3 | CCN(CC)CCNc1ccc2c(=O)n3c(nc2c1)/C(=C/c1ccc(C(C)C)cc1)CC3 | 
36 |  | 4 | CCN(CC)CCNc1cc2nc3n(c(=O)c2cc1F)CC/C3=C\c1ccc(C(C)C)cc1O | 
37 |  | 4.2 | CCN(CC)CCCNc1cc2nc3n(c(=O)c2cc1F)CC/C3=C\c1ccc(C(C)C)cc1O | 
38 |  | 2.7 | CCN(CC)CCNc1cc2nc3n(c(=O)c2cc1F)CC/C3=C\c1ccc(C(C)(C)C)cc1 | Activity [11]: Active; inhibition [6]: Active; inhibition [12]: Active
39 |  | 2.8 | CCN(CC)CCCNc1cc2nc(/C=C/c3ccc(C(C)C)cc3)n(CC)c(=O)c2cc1F | 
40 |  | 2.2 | CCN(CC)CCNc1cc2nc(/C=C/c3ccc(C(C)C)cc3)n(C)c(=O)c2cc1F | Activity [11]: Active; inhibition [6]: Active; inhibition [12]: inactive
41 |  | 2.8 | CC(C)c1ccc(/C=C2\CCn3c2nc2cc(NCCN(C)C)c(F)cc2c3=O)cc1 | IC50 [13]: > 20 µM; Activity [11]: Active; inhibition [6]: Active; inhibition [12]: inactive
42 |  | 2.1 | CCN(CC)CCNc1cc2nc3n(c(=O)c2cc1F)CC/C3=C\c1ccc(N(CC)CC)cc1O | IC50 [13]: > 20 µM; Activity [11]: Active; inhibition [6]: Active; inhibition [12]: inactive
43 |  | 3.6 | CCN(CC)CCCNc1cc2nc(/C=C/c3ccc(C(C)C)cc3)n(CC(C)C)c(=O)c2cc1F | 
